Source: the kinase profiling compilation of Christmann-Franck et al. (2016)

Tests used:
Assay in all cases: radiometric filter-binding kinase assay, Kinase HotSpot
Conditions in all cases: compound 0.5 µM; ATP 10 µM
[1] = molecular target: ABL2 (human) (UniProt P42684)
[2] = molecular target: AKT1 (human) (UniProt P31749)
[3] = molecular target: AURKA (human) (UniProt O14965)
[4] = molecular target: BRSK2 (human) (UniProt Q8IWQ3)
[5] = molecular target: CAMKK1 (human) (UniProt Q8N5S9)
[6] = molecular target: CAMKK2 (human) (UniProt Q96RR4)
[7] = molecular target: CDC42BPA (human) (UniProt Q5VT25)
[8] = molecular target: CDK2 CCNA2 (human) (UniProt P24941+P20248)
[9] = molecular target: CDK4 CCND1 (human) (UniProt P24385+P11802)
[10] = molecular target: CDK4 CCND3 (human) (UniProt P30281+P11802)
[11] = molecular target: DDR2 (human) (UniProt Q16832)
[12] = molecular target: IKBKB (human) (UniProt O14920)
[13] = molecular target: IKBKE (human) (UniProt Q14164)
[14] = molecular target: MAP2K1 (human) (UniProt Q02750)
Sequence of MAP2K1 (human) (Q02750 whole entry, looked up): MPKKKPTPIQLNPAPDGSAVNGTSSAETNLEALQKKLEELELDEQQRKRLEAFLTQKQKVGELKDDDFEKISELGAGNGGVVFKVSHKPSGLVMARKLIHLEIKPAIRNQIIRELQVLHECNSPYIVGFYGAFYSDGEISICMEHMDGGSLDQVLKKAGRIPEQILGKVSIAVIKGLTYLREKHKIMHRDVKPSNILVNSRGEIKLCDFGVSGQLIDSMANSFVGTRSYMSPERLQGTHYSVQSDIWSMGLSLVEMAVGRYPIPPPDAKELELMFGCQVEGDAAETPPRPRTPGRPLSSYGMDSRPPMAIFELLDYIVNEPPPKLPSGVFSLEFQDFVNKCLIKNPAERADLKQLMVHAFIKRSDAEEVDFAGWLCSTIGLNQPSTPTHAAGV

[15] = molecular target: MAP3K2 (human) (UniProt Q9Y2U5)
[16] = molecular target: MAP3K7 TAB1 (human) (UniProt O43318+Q15750)
[17] = molecular target: MAPKAPK2 (human) (UniProt P49137)
[18] = molecular target: MARK1 (human) (UniProt Q9P0L2)
[19] = molecular target: MARK2 (human) (UniProt Q7KZI7)
Sequence of MARK2 (human) (Q7KZI7 whole entry, looked up): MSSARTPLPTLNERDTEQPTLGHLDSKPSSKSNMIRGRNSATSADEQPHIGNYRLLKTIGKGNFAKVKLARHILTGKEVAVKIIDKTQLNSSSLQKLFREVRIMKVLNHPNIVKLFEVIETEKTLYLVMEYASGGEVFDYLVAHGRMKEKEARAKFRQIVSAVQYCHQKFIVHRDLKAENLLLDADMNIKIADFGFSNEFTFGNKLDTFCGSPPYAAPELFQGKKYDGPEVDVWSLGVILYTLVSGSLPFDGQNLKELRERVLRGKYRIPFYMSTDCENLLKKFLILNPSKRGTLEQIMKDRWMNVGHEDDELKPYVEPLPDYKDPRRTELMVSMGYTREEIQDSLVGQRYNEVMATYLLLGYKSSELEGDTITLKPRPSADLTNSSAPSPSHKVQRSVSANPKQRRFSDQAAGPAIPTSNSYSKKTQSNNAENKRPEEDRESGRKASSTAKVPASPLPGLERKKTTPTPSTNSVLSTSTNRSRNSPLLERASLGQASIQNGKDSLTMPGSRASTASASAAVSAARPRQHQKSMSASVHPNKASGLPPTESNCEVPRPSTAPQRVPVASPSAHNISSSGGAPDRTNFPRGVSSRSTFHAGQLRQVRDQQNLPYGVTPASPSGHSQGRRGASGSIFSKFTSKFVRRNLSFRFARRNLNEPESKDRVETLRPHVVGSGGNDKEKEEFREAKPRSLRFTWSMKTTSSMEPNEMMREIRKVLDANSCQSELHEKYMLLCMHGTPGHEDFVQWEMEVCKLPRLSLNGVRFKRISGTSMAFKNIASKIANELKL

[20] = molecular target: MATK (human) (UniProt P42679)
[21] = molecular target: MELK (human) (UniProt Q14680)
Sequence of MELK (human) (Q14680 whole entry, looked up): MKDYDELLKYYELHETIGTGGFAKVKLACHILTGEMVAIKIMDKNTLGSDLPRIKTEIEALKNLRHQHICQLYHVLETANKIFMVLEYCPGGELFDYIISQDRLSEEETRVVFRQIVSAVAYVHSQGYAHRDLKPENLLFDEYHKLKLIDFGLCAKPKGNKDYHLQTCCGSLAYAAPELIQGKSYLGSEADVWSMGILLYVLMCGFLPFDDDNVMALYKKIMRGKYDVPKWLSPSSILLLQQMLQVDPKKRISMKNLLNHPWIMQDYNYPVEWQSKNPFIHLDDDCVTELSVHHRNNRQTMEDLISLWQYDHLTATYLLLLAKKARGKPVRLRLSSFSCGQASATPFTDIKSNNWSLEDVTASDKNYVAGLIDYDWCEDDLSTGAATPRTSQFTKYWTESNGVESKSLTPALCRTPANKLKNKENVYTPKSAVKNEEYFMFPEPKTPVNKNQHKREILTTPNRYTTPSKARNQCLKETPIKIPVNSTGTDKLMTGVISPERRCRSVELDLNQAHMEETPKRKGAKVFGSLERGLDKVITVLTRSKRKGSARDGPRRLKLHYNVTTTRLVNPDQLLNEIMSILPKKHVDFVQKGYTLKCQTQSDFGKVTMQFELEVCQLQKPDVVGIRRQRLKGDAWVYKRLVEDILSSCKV

[22] = molecular target: MKNK2 (human) (UniProt Q9HBH9)
[23] = molecular target: NEK2 (human) (UniProt P51955)
Sequence of NEK2 (human) (P51955 whole entry, looked up): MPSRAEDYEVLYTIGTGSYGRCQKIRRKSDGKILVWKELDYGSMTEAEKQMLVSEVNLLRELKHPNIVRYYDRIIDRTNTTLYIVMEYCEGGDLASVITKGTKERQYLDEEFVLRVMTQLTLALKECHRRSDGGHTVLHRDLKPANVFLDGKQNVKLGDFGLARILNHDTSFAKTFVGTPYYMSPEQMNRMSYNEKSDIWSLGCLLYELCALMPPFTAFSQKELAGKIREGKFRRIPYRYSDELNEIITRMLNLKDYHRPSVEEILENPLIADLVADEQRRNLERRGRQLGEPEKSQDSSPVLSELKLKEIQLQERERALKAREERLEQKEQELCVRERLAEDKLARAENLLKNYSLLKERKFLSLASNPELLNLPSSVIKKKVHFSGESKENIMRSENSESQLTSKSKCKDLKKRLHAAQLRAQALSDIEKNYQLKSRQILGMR

[24] = molecular target: NTRK3 (human) (UniProt Q16288)
[25] = molecular target: PAK2 (human) (UniProt Q13177)
[26] = molecular target: PAK4 (human) (UniProt O96013)
[27] = molecular target: PAK7 (human) (UniProt Q9P286)
[28] = molecular target: PHKG2 (human) (UniProt P15735)
Sequence of PHKG2 (human) (P15735 whole entry, looked up): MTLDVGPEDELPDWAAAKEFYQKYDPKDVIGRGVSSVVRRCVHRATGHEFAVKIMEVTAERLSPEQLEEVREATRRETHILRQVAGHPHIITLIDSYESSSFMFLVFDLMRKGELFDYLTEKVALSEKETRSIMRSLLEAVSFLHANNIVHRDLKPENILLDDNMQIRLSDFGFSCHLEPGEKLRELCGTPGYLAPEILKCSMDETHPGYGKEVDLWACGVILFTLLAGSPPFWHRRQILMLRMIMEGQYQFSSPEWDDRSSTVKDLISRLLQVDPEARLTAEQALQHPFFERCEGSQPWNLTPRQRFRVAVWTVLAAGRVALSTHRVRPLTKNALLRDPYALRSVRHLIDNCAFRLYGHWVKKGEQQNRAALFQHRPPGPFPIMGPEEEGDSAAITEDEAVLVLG

[29] = molecular target: PRKCE (human) (UniProt Q02156)
[30] = molecular target: PRKCH (human) (UniProt P24723)
[31] = molecular target: PRKD2 (human) (UniProt Q9BZL6)
[32] = molecular target: ROCK1 (human) (UniProt Q13464)
[33] = molecular target: RPS6KA1 KD1 KD2 (human) (UniProt Q15418)
Sequence of RPS6KA1 KD1 KD2 (human) (Q15418 whole entry, looked up): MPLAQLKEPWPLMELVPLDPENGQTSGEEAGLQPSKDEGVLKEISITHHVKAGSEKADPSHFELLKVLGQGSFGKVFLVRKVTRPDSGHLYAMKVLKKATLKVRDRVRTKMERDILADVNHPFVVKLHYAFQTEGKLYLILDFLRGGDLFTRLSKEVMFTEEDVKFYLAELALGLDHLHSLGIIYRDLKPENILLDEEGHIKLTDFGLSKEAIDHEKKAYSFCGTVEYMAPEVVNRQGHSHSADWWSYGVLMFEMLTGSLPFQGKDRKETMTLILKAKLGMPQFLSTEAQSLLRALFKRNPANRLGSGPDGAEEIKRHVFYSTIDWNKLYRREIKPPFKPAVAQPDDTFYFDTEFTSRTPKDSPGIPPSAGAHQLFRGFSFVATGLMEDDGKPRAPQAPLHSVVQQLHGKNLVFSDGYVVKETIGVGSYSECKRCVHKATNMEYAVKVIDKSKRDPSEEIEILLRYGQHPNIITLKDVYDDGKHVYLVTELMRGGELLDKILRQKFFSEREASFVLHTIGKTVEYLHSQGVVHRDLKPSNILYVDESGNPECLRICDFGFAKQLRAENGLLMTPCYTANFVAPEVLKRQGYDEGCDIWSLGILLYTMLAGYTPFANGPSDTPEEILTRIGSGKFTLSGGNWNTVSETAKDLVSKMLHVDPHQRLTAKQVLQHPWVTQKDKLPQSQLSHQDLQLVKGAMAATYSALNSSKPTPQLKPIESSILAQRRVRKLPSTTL

[34] = molecular target: RPS6KB1 (human) (UniProt P23443)
Sequence of RPS6KB1 (human) (P23443 whole entry, looked up): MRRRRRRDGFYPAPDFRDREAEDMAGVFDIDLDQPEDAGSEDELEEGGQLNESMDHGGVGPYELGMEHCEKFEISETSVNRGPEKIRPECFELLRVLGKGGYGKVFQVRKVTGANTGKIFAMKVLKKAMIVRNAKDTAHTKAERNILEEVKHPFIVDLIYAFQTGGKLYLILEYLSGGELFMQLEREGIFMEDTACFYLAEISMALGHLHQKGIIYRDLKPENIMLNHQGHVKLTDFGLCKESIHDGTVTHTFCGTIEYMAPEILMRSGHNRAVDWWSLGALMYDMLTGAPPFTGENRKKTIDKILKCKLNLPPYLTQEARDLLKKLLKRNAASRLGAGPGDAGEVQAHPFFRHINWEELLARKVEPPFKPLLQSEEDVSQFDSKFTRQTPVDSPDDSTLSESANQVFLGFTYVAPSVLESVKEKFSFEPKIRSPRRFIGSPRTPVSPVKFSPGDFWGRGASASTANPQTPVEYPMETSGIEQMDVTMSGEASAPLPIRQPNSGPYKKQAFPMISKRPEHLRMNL

[35] = molecular target: SIK2 (human) (UniProt Q9H0K1)
[36] = molecular target: STK17A (human) (UniProt Q9UEE5)
Sequence of STK17A (human) (Q9UEE5 whole entry, looked up): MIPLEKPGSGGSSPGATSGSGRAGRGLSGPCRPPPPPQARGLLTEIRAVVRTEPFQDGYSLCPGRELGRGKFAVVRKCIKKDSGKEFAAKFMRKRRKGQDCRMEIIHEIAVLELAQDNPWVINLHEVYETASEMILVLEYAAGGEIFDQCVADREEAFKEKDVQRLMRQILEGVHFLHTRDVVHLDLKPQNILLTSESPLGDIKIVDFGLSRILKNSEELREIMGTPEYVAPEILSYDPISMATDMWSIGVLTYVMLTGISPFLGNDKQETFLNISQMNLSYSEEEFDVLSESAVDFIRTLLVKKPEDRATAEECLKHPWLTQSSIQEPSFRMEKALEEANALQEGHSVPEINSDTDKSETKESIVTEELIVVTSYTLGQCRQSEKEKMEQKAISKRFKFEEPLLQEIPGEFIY

[37] = molecular target: STK3 (human) (UniProt Q13188)
[38] = molecular target: TYK2 JH1 catalytic (human) (UniProt P29597)
[39] = molecular target: VRK1 (human) (UniProt Q99986)
[40] = molecular target: WNK2 (human) (UniProt Q9Y3S1)
[41] = molecular target: YES1 (human) (UniProt P07947)

Sequence of CAMKK1 (human) (Q8N5S9 whole entry, looked up): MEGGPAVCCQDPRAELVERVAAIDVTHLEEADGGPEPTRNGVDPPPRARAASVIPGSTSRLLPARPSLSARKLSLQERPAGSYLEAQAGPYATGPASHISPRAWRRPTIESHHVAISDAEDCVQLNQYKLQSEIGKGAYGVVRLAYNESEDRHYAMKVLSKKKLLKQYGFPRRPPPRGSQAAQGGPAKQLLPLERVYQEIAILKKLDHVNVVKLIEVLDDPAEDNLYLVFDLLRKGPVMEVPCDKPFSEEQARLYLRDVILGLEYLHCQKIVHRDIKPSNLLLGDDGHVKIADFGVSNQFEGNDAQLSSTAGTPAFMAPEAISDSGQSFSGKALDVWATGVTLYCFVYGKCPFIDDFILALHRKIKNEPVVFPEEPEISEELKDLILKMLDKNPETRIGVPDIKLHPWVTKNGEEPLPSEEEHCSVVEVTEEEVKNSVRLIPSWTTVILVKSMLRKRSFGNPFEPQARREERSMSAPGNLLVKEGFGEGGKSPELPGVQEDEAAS

In the case of `O=C1NC(=O)C(c2cn(CCCO)c3ncccc23)=C1c1cnccn1`, the residual activity [1] is reported as 83.7%, the residual activity [2] is reported as 98.6% and the residual activity [3] is reported as 107%. The residual activity [4] was 90.4%, the residual activity [5] was 107% and the residual activity [6] was 115%. For the same compound, the residual activity [7] was 78.6%, the residual activity [8] was 94.8% and the residual activity [9] was 89.5%. It also gave a residual activity [10] of 95.9%, a residual activity [11] of 94.6% and a residual activity [12] of 87.3%. It also gave a residual activity [13] of 90%, a residual activity [14] of 106% and a residual activity [15] of 96.9%. For the same compound, the residual activity [16] was 95.5%, the residual activity [17] was 91% and the residual activity [18] was 95%. It also gave a residual activity [19] of 97.5%, a residual activity [20] of 95.5% and a residual activity [21] of 101%. The residual activity [22] was 69.1%, the residual activity [23] was 97.5% and the residual activity [24] was 79.7%. The residual activity [25] was 105%, the residual activity [26] was 111% and the residual activity [27] was 88.2%. The residual activity [28] was 102%, the residual activity [29] was 102% and the residual activity [30] was 81.6%. For the same compound, the residual activity [31] was 118%, the residual activity [32] was 90.2% and the residual activity [33] was 94.8%. For the same compound, the residual activity [34] was 90.2%, the residual activity [35] was 101% and the residual activity [36] was 93.6%. For the same compound, the residual activity [37] was 74.4%, the residual activity [38] was 96.9% and the residual activity [39] was 86.4%. For the same compound, the residual activity [40] was 104% and the residual activity [41] was 80.1%.

In the case of `Cn1nc2c3c(cccc31)C(=O)c1ccccc1-2`, the residual activity [1] is reported as 97.8%, the residual activity [2] is reported as 99.1% and the residual activity [3] is reported as 89.4%. For the same compound, the residual activity [4] was 96.4%, the residual activity [5] was 102% and the residual activity [6] was 74.9%. The residual activity [7] was 106%, the residual activity [8] was 105% and the residual activity [9] was 98.9%. It also gave a residual activity [10] of 92.4%, a residual activity [11] of 95.1% and a residual activity [12] of 103%. The residual activity [13] was 92.3%, the residual activity [14] was 86.3% and the residual activity [15] was 103%. It also gave a residual activity [16] of 83.9%, a residual activity [17] of 102% and a residual activity [18] of 95.7%. It also gave a residual activity [19] of 94.1%, a residual activity [20] of 88% and a residual activity [21] of 83.6%. It also gave a residual activity [22] of 94.1%, a residual activity [23] of 88.2% and a residual activity [24] of 71.6%. The residual activity [25] was 102%, the residual activity [26] was 90.4% and the residual activity [27] was 102%. The residual activity [28] was 95.4%, the residual activity [29] was 95.7% and the residual activity [30] was 94.3%. It also gave a residual activity [31] of 77%, a residual activity [32] of 98.4% and a residual activity [33] of 93.7%. It also gave a residual activity [34] of 96.3%, a residual activity [35] of 100% and a residual activity [36] of 83.7%. It also gave a residual activity [37] of 88.4%, a residual activity [38] of 89.4% and a residual activity [39] of 84.1%. The residual activity [40] was 104% and the residual activity [41] was 94.5%.

`COc1cc2ncc(-c3ccccc3)nc2cc1OC` gave a residual activity [1] of 94%, a residual activity [2] of 99.2% and a residual activity [3] of 90.3%. It also gave a residual activity [4] of 103%, a residual activity [5] of 98.9% and a residual activity [6] of 114%. It also gave a residual activity [7] of 85.4%, a residual activity [8] of 92.9% and a residual activity [9] of 103%. For the same compound, the residual activity [10] was 97.5%, the residual activity [11] was 96.9% and the residual activity [12] was 101%. For the same compound, the residual activity [13] was 98.9%, the residual activity [14] was 97.6% and the residual activity [15] was 92.5%. For the same compound, the residual activity [16] was 92.8%, the residual activity [17] was 85.9% and the residual activity [18] was 92.6%. For the same compound, the residual activity [19] was 112%, the residual activity [20] was 101% and the residual activity [21] was 88.9%. The residual activity [22] was 86.3%, the residual activity [23] was 85.3% and the residual activity [24] was 89.1%. It also gave a residual activity [25] of 85.6%, a residual activity [26] of 75.9% and a residual activity [27] of 85.6%. It also gave a residual activity [28] of 97.1%, a residual activity [29] of 87.9% and a residual activity [30] of 107%. It also gave a residual activity [31] of 93.8%, a residual activity [32] of 95.5% and a residual activity [33] of 88.4%. For the same compound, the residual activity [34] was 89%, the residual activity [35] was 93.1% and the residual activity [36] was 95.5%. It also gave a residual activity [37] of 95.7%, a residual activity [38] of 93.9% and a residual activity [39] of 106%. For the same compound, the residual activity [40] was 104% and the residual activity [41] was 96.1%.
